{
  "source": "patent EP2829880A1",
  "about": "“Method for identifying modulators of BCRP/ABCG2-mediated ATP release and use of said modulators for treating diseases” (Energeia Biosciences, priority 2013, dated 2015)",
  "molecules": {"B1": {"name": "BCRP (ABCG2) (Homo sapiens) (protein)", "chain": "MSSSNVEVFIPVSQGNTNGFPATASNDLKAFTEGAVLSFHNICYRVKLKSGFLPCRKPVEKEILSNINGIMKPGLNAILGPTGGGKSSLLDVLAARKDPSGLSGDVLINGAPRPANFKCNSGYVVQDDVVMGTLTVRENLQFSAALRLATTMTNHEKNERINRVIQELGLDKVADSKVGTQFIRGVSGGERKRTSIGMELITDPSILFLDEPTTGLDSSTANAVLLLLKRMSKQGRTIIFSIHQPRYSIFKLFDSLTLLASGRLMFHGPAQEALGYFESAGYHCEAYNNPADFFLDIINGDSTAVALNREEDFKATEIIEPSKQDKPLIEKLAEIYVNSSFYKETKAELHQLSGGEKKKKITVFKEISYTTSFCHQLRWVSKRSFKNLLGNPQASIAQIIVTVVLGLVIGAIYFGLKNDSTGIQNRAGVLFFLTTNQCFSSVSAVELFVVEKKLFIHEYISGYYRVSSYFLGKLLSDLLPMRMLPSIIFTCIVYFMLGLKPKADAFFVMMFTLMMVAYSASSMALAIAAGQSVVSVATLLMTICFVFMMIFSGLLVNLTTIASWLSWLQYFSIPRYGFTALQHNEFLGQNFCPGLNATGNNPCNYATCTGEEYLVKQGIDLSPWGLWKNHVALACMIVIFLTIAYLKLLFLKKYS"}},
  "key": {"BCRP (ABCG2) [1]": {"molecular_target": "T1, BCRP (ABCG2) (Homo sapiens, UniProt Q9UNQ0)", "T1 sequence (Q9UNQ0 1-655)": "B1 chain", "assay": "in vitro", "description": "The uptake of ATP is plotted in pmol/mg protein/min. […] The uptake of a [3H] or [32P]-radiolabelled ATP by an ABC drug transporter selected from the group consisting of BCRP (ABCG2) or MRP1-6 (ABCC1-6) into membrane vesicles (stably overexpressing one type of ABC transporter) under conditions of low pH (compared with physiological pH) can be studied by radiochemical analysis. Subsequently, the effect of a test compound on the ABC drug transporter-mediated ATP release can be studied at different pH values (not shown in figure). • Figure 6: Schematic representation of the ABC drug transporter mediated-ATP-release assay. The transport of a [3H] or [32P]-radiolabelled ATP by an ABC drug transporter selected from the group consisting of BCRP (ABCG2) or MRP1-6 (ABCC1-6) into MDCKII cells (stably overexpressing one type of ABC drug transporter) under conditions of low extracellular pH (compared with physiological pH) and/or hypoxic conditions (0-1% O2, 5% CO2, 94-95% N2) (compared with normoxic conditions (20% O2, 5% CO2, 75% N2)) can be studied by radiochemical analysis or HPLC. Subsequently, the effect of a test compound on the ABC drug transporter-mediated ATP release can be studied at different pH values (not shown in figure). • Figure 7: Schematic representation of ABCG2 expression in normal tissues. Arrows indicate direction of substrate transport. In the brain and testis, ABCG2 is expressed mainly in the blood vessel endothelium, forming part of the blood-brain and blood-testis barrier, respectively. (from: Robey et al. Curr Pharm Biotechnol 2011) • Figure 8: Table 1: Cellular localization and function of ion exchange pumps • Figure 9: Table 2: Protein and/or gene expression of MRP/Mrp isoforms in various brain compartments in human and in mouse and in rat. Table adapted from Dallas et al. (45). • Figure 10: Chemical structure of Danshen compounds • Fig. 10 A: Chemical structures of compounds from Danshen (Salvia miltiorrhiza) • Fig. 10 B: Chemical structures of main lipophilic compounds from Danshen • Fig. 10 C: Chemical structure of main hydrophilic compounds from Danshen • Fig. 10 D: Chemical structure of Magnesium lithospermate B • Fig. 10 E: Chemical structure of salvianolic acid B • Fig. 10 F: Chemical structure of Indirubin\nMembrane vesicles from (ABC transporter-transfected) Sf9 cells were prepared in isotonic vesicle buffer consisting of 50 mM Tris and 250 mM sucrose adjusted to pH 7.4. Vesicular transport assays were performed in vesicular transport assay buffer (50 mM HEPES/KOH, 100 mM KCI) as described before (Breedveld et al., 2004, 2007). The vesicular transport assay buffer and the solutions of all other reagents used in transport assays were adjusted to the appropriate pH (pH 6 or pH 7.4) by adding aliquots of HCl (37% w/w) for low pH. The pH of the final solution was controlled (Breedveld et al., 2007). […]\nCurve fitting was performed by nonlinear regression analysis using the software package Graphpad Prism version 4 (GraphPad Software, San Diego, USA). Data from concentration-dependent transport assays were analyzed according to the classical Michaelis-Menten model (eq. 1) (Rowland and Tozer, 1995): v = (Vmax x [S])/(Km + [S]) [formula] where v is the rate of transport, Vmax is the maximum velocity, S is the substrate concentration, and Km is the substrate concentration at half-maximum velocity."}, "BCRP (ABCG2) [2]": {"molecular_target": "T1, BCRP (ABCG2)", "set-up": "made in house; host or cells: Sf9 insect cells (membrane vesicles)", "settings": "1 µM MTX; cited from earlier work"}, "[3]": {"settings": "cited from earlier work"}, "[4]": {"substrate": "Nc1ncnc2c1ncn2[C@@H]1O[C@H](COP(=O)(O)OP(=O)(O)OP(=O)(O)O)[C@@H](O)[C@H]1O", "assay": "cells, lysate or membranes named", "settings": "other: pH 6, saturable transport, 37°C, 5 min (Fig. 2A)"}},
  "note": "Read-outs that look alike come from different tables or passages of the source.",
  "data": [
    {"molecule": "CN(Cc1cnc2nc(N)nc(N)c2n1)c1ccc(C(=O)N[C@@H](CCC(=O)O)C(=O)O)cc1", "note": "[MTX, methotrexate]", "values": [
      {"measurement": "inhibition at 100 µM", "setting": "BCRP (ABCG2) [1]; pH 6", "result": "~46", "unit": "%"},
      {"measurement": "ATP-dependent transport by BCRP at pH 5.1 relative to physiological pH", "setting": "BCRP (ABCG2) [2]", "result": 7, "unit": "fold"}
    ]},
    {"molecule": "Nc1ncnc2c1ncn2[C@@H]1O[C@H](COP(=O)(O)OP(=O)(O)OP(=O)(O)O)[C@@H](O)[C@H]1O", "note": "[[^3H]ATP, adenosine 5'-triphosphate]", "values": [
      {"measurement": "transport by BCRP at pH 6 relative to physiological pH", "setting": "BCRP (ABCG2) [1]; 0.5 min, 100 µM, pH 6", "result": 3.8, "unit": "fold"}
    ]},
    {"molecule": "Nc1ncnc2c1ncn2[C@@H]1O[C@H](COP(=O)(O)OP(=O)(O)OP(=O)(O)O)[C@@H](O)[C@H]1O", "note": "[[^32P]-γ-labeled-ATP, adenosine 5'-triphosphate]", "values": [
      {"measurement": "net uptake into BCRP membrane vesicles", "setting": "BCRP (ABCG2) [1]; 0.5 min, 100 µM, pH 6", "result": 80, "unit": "pmol/mg protein"},
      {"measurement": "net uptake into BCRP membrane vesicles", "setting": "BCRP (ABCG2) [1]; 10 min, 100 µM, pH 6", "result": 194, "unit": "pmol/mg protein"}
    ]},
    {"molecule": "COc1ccnc(C[S+]([O-])c2nc3ccc(OC(F)F)cc3[nH]2)c1OC", "note": "(stereo not shown) [pantoprazole]", "values": [
      {"measurement": "IC50", "setting": "BCRP (ABCG2) [1]", "result": "> 1000", "unit": "µM"}
    ]},
    {"molecule": "CCN(CC)CCNC(=O)c1c(C)[nH]c(/C=C2\\C(=O)Nc3ccc(F)cc32)c1C", "note": "[sunitinib]", "values": [
      {"measurement": "increase of brain accumulation", "setting": "[3]; Abcb1a/b(-/-) mice", "result": 2.3, "unit": "fold"},
      {"measurement": "increase of brain accumulation", "setting": "[3]; Abcb1a/b/Abcg2(-/-) mice", "result": 23, "unit": "fold"}
    ]},
    {"molecule": "B1", "values": [
      {"measurement": "Km", "setting": "[4]", "result": 2000, "unit": "µM"},
      {"measurement": "Vmax", "setting": "[4]", "result": 1.5, "unit": "nmoles/mg protein/min"}
    ]}
  ]
}
